Patent US8653100B2 (AbbVie Inc., priority 2008, dated 2014)
Counter-ions that a name gives are not always drawn. Like-named read-outs stand apart in the source and are kept apart here.

Target: human GlyT1c transporter (Homo sapiens (Human), UniProt P48067)
Assay: Radioligand binding assay using recombinant CHO cell membranes expressing human GlyT1
Conditions: examples 88-204, radioligand not specified by footnote, read-out: radioligand binding Kiapp
Protocol: 2. Radioligand binding assays using recombinant CHO cell membranes expressing human GlyT1:
Radioligand binding to human GlyT1c transporter-expressing membranes was carried out as described in Mezler et al., Molecular Pharmacology 74:1705-1715, 2008.
More specifically, [^3H]-(R)-NPTS radioligand binding to human GlyT1c transporter-expressing membranes was measured in duplicate in a total volume of 200 μl in 96-well plates. To 100 μl of membrane suspension (yielding a final membrane protein concentration of 50 μg/ml) in assay buffer (120 mM NaCl, 2 mM KCl, 10 mM Hepes, 1 mM MgCl2, 1 mM CaCl2, pH 7.5) […] of [^3H]-(R)-NPTS (0.5 nM final) were added in assay buffer. For competition experiments 10 μl of buffer or unlabeled compound solution obtained from dilution series of test compounds in DMSO followed. An intermediate 1:10 dilution in assay buffer yielded a final DMSO concentration of 1%. Non-specific binding was determined in the presence of 10 μM Org24598 (or its racemate Org24461) for [^3H]-(R)-NPTS. After incubation at room temperature for 1 h, the incubation mixture was harvested (Tomtec Mach III U Harvester) through 96-well GF/B filter plates (PerkinElmer), presoaked for 1 h with 40 μl per well of 0.1% polyethylene-imine (PEI). After washing twice with ice-cold 50 mM Tris-HCl pH 7.4 buffer, drying and addition of 35 μl scintillator (BetaplateScint, PerkinElmer) per well followed. The radioactivity was determined by liquid scintillation spectrometry in a MicroBeta (PerkinElmer) plate counter.
Data analysis: For binding of [^3H]-(R)-NPTS to cell membranes, the calculation of Kd and Bmax values from the saturation binding assays and the IC50 values from the displacement binding was performed by iterative non-linear regression analysis adapted from the ‘Ligand’ program (Munson and Rodbard, 1980). Radioligand displacement curves in absence or in presence of increasing concentrations of tested compounds were fitted using a one-site fit and the apparent Ki values were calculated from the IC50 values using the Cheng-Prusoff equation (Cheng and Prusoff 1973).

Sequence of human GlyT1c transporter (P48067 whole entry): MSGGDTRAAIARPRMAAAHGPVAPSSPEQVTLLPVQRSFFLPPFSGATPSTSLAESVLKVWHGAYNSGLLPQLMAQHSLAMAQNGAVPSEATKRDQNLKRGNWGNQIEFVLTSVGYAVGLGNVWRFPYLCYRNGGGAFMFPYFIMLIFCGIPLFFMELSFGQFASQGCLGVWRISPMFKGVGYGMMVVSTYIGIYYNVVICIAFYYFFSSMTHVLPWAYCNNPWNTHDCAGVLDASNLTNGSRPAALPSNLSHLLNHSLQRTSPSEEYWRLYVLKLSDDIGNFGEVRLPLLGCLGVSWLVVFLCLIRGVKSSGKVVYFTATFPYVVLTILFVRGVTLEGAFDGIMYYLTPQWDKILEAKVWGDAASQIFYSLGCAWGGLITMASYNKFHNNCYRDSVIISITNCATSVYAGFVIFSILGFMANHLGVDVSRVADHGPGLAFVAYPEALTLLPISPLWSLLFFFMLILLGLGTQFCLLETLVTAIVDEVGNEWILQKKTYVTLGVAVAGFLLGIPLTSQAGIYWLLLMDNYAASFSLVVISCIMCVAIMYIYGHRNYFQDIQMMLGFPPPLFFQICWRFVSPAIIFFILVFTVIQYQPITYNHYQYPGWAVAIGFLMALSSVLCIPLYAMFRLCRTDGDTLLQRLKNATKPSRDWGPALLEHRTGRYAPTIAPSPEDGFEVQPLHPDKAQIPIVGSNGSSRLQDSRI

Row | SMILES | Ki | Ki (hydrochloride)
1 | CC(C)(c1ccc(Cl)cc1)C1NCCc2ccc(C#N)cc21 (stereo not drawn) [Example 107, 1-[2-(4-Chlorophenyl)propan-2-yl]-1,2,3,4-tetrahydroisoquinoline-7-carbonitrile hydrochloride] | ≤ 1000 nM | 
2 | O=S(=O)(CCCOc1ccc2c(c1)C(C1(c3ccc(Cl)cc3)CCC1)NCC2)Nc1ccccn1 (stereo not drawn) [Example 109, 3-({1-[1-(4-Chlorophenyl)cyclobutyl]-1,2,3,4-tetrahydroisoquinolin-7-yl}oxy)-N-(pyridin-2-yl)propane-1-sulfonamide dihydrochloride] | ≤ 1000 nM | 
3 | O=S(=O)(NCCOc1ccc2c(c1)C(C1(c3ccc(Cl)cc3)CCC1)NCC2)c1ccc(CCF)cc1 (stereo not drawn) [Example 110, N-[2-({1-[1-(4-Chlorophenyl)cyclobutyl]-1,2,3,4-tetrahydroisoquinolin-7-yl}oxy)ethyl]-4-(2-fluoroethyl)benzenesulfonamide hydrochloride] | ≤ 1000 nM | 
4 | Cn1cnc(S(=O)(=O)NCC(=O)Nc2ccc3c(c2)C(C2(c4ccc(Cl)cc4)CCC2)NCC3)c1 (stereo not drawn) [Example 111, N-{1-[1-(4-Chlorophenyl)cyclobutyl]-1,2,3,4-tetrahydroisoquinolin-7-yl}-N˜2˜-[(1-methyl-1H-imidazol-4-yl)sulfonyl]glycinamide dihydrochloride] | ≤ 1000 nM | 
5 | Cn1cc(S(=O)(=O)NCC(=O)Nc2ccc3c(c2)C(C2(c4ccc(Cl)cc4)CCC2)NCC3)cn1 (stereo not drawn) [Example 113, N-{1-[1-(4-Chlorophenyl)cyclobutyl]-1,2,3,4-tetrahydroisoquinolin-7-yl}-N˜2˜-[(1-methyl-1H-pyrazol-4-yl)sulfonyl]glycinamide hydrochloride] | ≤ 1000 nM | 
6 | O=S(=O)(NCCOc1ccc2c(c1)C(C1(c3ccc(Cl)cc3)CCC1)NCC2)c1ccc(CCCF)cc1 (stereo not drawn) [Example 114, N-[2-({1-[1-(4-Chlorophenyl)cyclobutyl]-1,2,3,4-tetrahydroisoquinolin-7-yl}oxy)ethyl]-4-(3-fluoropropyl)benzenesulfonamide hydrochloride] | ≤ 1000 nM | 
7 | O=S(=O)(Nc1ccc(Oc2ccc3c(c2)C(C2(c4ccc(Cl)cc4)CCC2)NCC3)cc1)c1cccs1 (stereo not drawn) [Example 115, N-[4-({1-[1-(4-Chlorophenyl)cyclobutyl]-1,2,3,4-tetrahydroisoquinolin-7-yl}oxy)phenyl]thiophene-2-sulfonamide hydrochloride] | ≤ 1000 nM | 
8 | CCCS(=O)(=O)Nc1ccc(Oc2ccc3c(c2)C(C2(c4ccc(Cl)cc4)CCC2)NCC3)nc1 (stereo not drawn) [Example 119, N-[6-({1-[1-(4-Chlorophenyl)cyclobutyl]-1,2,3,4-tetrahydroisoquinolin-7-yl}oxy)pyridin-3-yl]propane-1-sulfonamide dihydrochloride] | ≤ 10000 nM | 
9 | CCCS(=O)(=O)Oc1ccc2c(c1)C(C1(c3cccc(F)c3)CCC1)NCC2 (stereo not drawn) [Example 120, 1-[1-(3-Fluorophenyl)cyclobutyl]-1,2,3,4-tetrahydroisoquinolin-7-yl propane-1-sulfonate hydrochloride] | ≤ 10000 nM | 
10 | O=S(=O)(Nc1ccccc1Oc1ccc2c(c1)C(C1(c3ccc(Cl)cc3)CCC1)NCC2)c1cccnc1 (stereo not drawn) [Example 122, N-[2-({1-[1-(4-Chlorophenyl)cyclobutyl]-1,2,3,4-tetrahydroisoquinolin-7-yl}oxy)phenyl]pyridine-3-sulfonamide dihydrochloride] | ≤ 10000 nM | 
11 | O=S(=O)(Nc1ccc(Oc2ccc3c(c2)C(C2(c4ccc(Cl)cc4)CCC2)NCC3)nc1)c1cccs1 (stereo not drawn) [Example 124, N-[6-({1-[1-(4-Chlorophenyl)cyclobutyl]-1,2,3,4-tetrahydroisoquinolin-7-yl}oxy)pyridin-3-yl]thiophene-2-sulfonamide dihydrochloride] | ≤ 10000 nM | 
12 | CCCS(=O)(=O)NCc1ccc2c(c1)C(C1(c3ccccn3)CCC1)NCC2 (stereo not drawn) [Example 125, N-({1-[1-(Pyridin-2-yl)cyclobutyl]-1,2,3,4-tetrahydroisoquinolin-7-yl}methyl)propane-1-sulfonamide trifluoroacetate] | ≤ 10000 nM | 
13 | O=S(=O)(Nc1cccnc1Oc1ccc2c(c1)C(C1(c3ccc(Cl)cc3)CCC1)NCC2)c1cccs1 (stereo not drawn) [Example 127, N-[2-({1-[1-(4-Chlorophenyl)cyclobutyl]-1,2,3,4-tetrahydroisoquinolin-7-yl}oxy)pyridin-3-yl]thiophene-2-sulfonamide dihydrochloride] | ≤ 10000 nM | 
14 | CCCS(=O)(=O)Nc1cccnc1Oc1ccc2c(c1)C(C1(c3ccc(Cl)cc3)CCC1)NCC2 (stereo not drawn) [Example 128, N-[2-({1-[1-(4-Chlorophenyl)cyclobutyl]-1,2,3,4-tetrahydroisoquinolin-7-yl}oxy)pyridin-3-yl]propane-1-sulfonamide dihydrochloride] | ≤ 10000 nM | 
15 | N#Cc1ccc2c(c1)C(C1(c3ccccn3)CCC1)NCC2 (stereo not drawn) [Example 129, 1-[1-(Pyridin-2-yl)cyclobutyl]-1,2,3,4-tetrahydroisoquinoline-7-carbonitrile hydrochloride] | ≤ 10000 nM | 
16 | O=S(=O)(Nc1ccc(Oc2ccc3c(c2)C(C2(c4ccc(Cl)cc4)CCC2)NCC3)nc1)c1cccnc1 (stereo not drawn) [Example 131, N-[6-({1-[1-(4-Chlorophenyl)cyclobutyl]-1,2,3,4-tetrahydroisoquinolin-7-yl}oxy)pyridin-3-yl]pyridine-3-sulfonamide trihydrochloride] | ≤ 10000 nM | 
17 | O=S(=O)(CC1CC1)NCc1ccc2c(c1)C(C1(c3ccccn3)CCC1)NCC2 (stereo not drawn) [Example 134, 1-Cyclopropyl-N-({1-[1-(pyridin-2-yl)cyclobutyl]-1,2,3,4-tetrahydroisoquinolin-7-yl}methyl)methanesulfonamide trifluoroacetate] | ≤ 10000 nM | 
18 | O=S(=O)(Nc1cccnc1Oc1ccc2c(c1)C(C1(c3ccc(Cl)cc3)CCC1)NCC2)c1cccnc1 (stereo not drawn) [Example 136, N-[2-({1-[1-(4-Chlorophenyl)cyclobutyl]-1,2,3,4-tetrahydroisoquinolin-7-yl}oxy)pyridin-3-yl]pyridine-3-sulfonamide trihydrochloride] | ≤ 10000 nM | 
19 | NCCCNS(=O)(=O)CCCOc1ccc2c(c1)C(C1(c3ccc(Cl)cc3)CCC1)NCC2 (stereo not drawn) [Example 137, N-(3-Aminopropyl)-3-({1-[1-(4-chlorophenyl)cyclobutyl]-1,2,3,4-tetrahydroisoquinolin-7-yl}oxy)propane-1-sulfonamide dihydrochloride] | ≤ 10000 nM | 
20 | CCCS(=O)(=O)NCCOc1ccc2c(c1)C(C(C)(C)c1ccc(Cl)cc1)NCC2 (stereo not drawn) [Example 139, N-[2-({1-[2-(4-Chlorophenyl)propan-2-yl]-1,2,3,4-tetrahydroisoquinolin-7-yl}oxy)ethyl]propane-1-sulfonamide] | ≤ 100 nM | 
21 | O=S(=O)(CCCF)NCCOc1ccc2c(c1)C(C1(c3ccc(Cl)cc3)CCC1)NCC2 (stereo not drawn) [Example 140, N-[2-({1-[1-(4-Chlorophenyl)cyclobutyl]-1,2,3,4-tetrahydroisoquinolin-7-yl}oxy)ethyl]-3-fluoropropane-1-sulfonamide hydrochloride] | ≤ 100 nM | 
22 | O=S(=O)(NCCOc1ccc2c(c1)[C@H](C1(c3ccc(Cl)cc3)CCC1)NCC2)c1cccnc1 [Example 141, N-[2-({(1S)-1-[1-(4-Chlorophenyl)cyclobutyl]-1,2,3,4-tetrahydroisoquinolin-7-yl}oxy)ethyl]pyridine-3-sulfonamide hydrochloride] |  | ≤ 100 nM
23 | CN(C)S(=O)(=O)NCCOc1ccc2c(c1)C(C1(c3ccc(Cl)cc3)CCC1)NCC2 (stereo not drawn) [Example 143, N′-[2-({1-[1-(4-Chlorophenyl)cyclobutyl]-1,2,3,4-tetrahydroisoquinolin-7-yl}oxy)ethyl]-N,N-dimethylsulfuric diamide hydrochloride] | ≤ 100 nM | 
24 | O=S(=O)(CCC(F)(F)F)NCCOc1ccc2c(c1)C(C1(c3ccc(Cl)cc3)CCC1)NCC2 (stereo not drawn) [Example 144, N-[2-({1-[1-(4-Chlorophenyl)cyclobutyl]-1,2,3,4-tetrahydroisoquinolin-7-yl}oxy)ethyl]-3,3,3-trifluoropropane-1-sulfonamide hydrochloride] | ≤ 100 nM | 
25 | NCCS(=O)(=O)NCCOc1ccc2c(c1)[C@H](C1(c3ccc(Cl)cc3)CCC1)NCC2 [Example 146, 2-Amino-N-[2-({(1S)-1-[1-(4-chlorophenyl)cyclobutyl]-1,2,3,4-tetrahydroisoquinolin-7-yl}oxy)ethyl]ethanesulfonamide dihydrochloride] | ≤ 100 nM | 
26 | Nc1ccc(S(=O)(=O)NCCOc2ccc3c(c2)C(C2(c4ccc(Cl)cc4)CCC2)NCC3)cc1 (stereo not drawn) [Example 147, 4-Amino-N-[2-({1-[1-(4-chlorophenyl)cyclobutyl]-1,2,3,4-tetrahydroisoquinolin-7-yl}oxy)ethyl]benzenesulfonamide dihydrochloride] | ≤ 100 nM | 
27 | CN(C)CCS(=O)(=O)NCCOc1ccc2c(c1)C(C1(c3ccc(Cl)cc3)CCC1)NCC2 (stereo not drawn) [Example 149, N-[2-({1-[1-(4-Chlorophenyl)cyclobutyl]-1,2,3,4-tetrahydroisoquinolin-7-yl}oxy)ethyl]-2-(dimethylamino)ethanesulfonamide (2E)-but-2-enedioate] | ≤ 100 nM | 
